Experiments:
VIOTR = experiment: Post-emergence herbicidal action against VIOTR; format: in vivo, Viola tricolor; settings: Viola tricolor, 504 h
How it was run: (§1)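 A WP or EC formulation diluted in water with 0.2% wetting agent was sprayed at 600 to 800 l/ha onto one-leaf-stage plants grown in sandy loam. About 3 weeks later, action was rated visually in percent, 100% being dead plants.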

LOLRI = experiment: Pre-emergence herbicidal action against LOLRI; format: in vivo, Lolium rigidum; settings: Lolium rigidum, 504 h, 320 g/ha
How it was run: (§2)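 Greenhouse pots of sandy loam held seeds covered with soil, onto which the compound was applied before emergence. An aqueous suspension or emulsion of WP or EC was used at 600 to 800 l/ha with 0.2% wetting agent. Percent damage was judged visually at 3 weeks.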

ECHCG = experiment: Post-emergence herbicidal action against ECHCG; format: in vivo, Echinochloa crus-galli; settings: Echinochloa crus-galli, 504 h
How it was run: as §1

MATIN [1] = experiment: Pre-emergence herbicidal action against MATIN; format: in vivo, Matricaria inodora; settings: Tripleurospermum inodorum, 504 h
How it was run: as §2

ALOMY [2] = experiment: Pre-emergence herbicidal action against ALOMY; format: in vivo, Alopecurus myosuroides; settings: Alopecurus myosuroides, 504 h, pre-emergence
How it was run: as §2

ALOMY [3] = experiment: Post-emergence herbicidal action against ALOMY; format: in vivo, Alopecurus myosuroides; settings: Alopecurus myosuroides, 504 h, visual assessment about 3 weeks after treatment vs untreated controls
How it was run: as §1

HORMU [4] = experiment: Pre-emergence herbicidal action against HORMU; format: in vivo, Hordeum murinum; settings: Hordeum murinum, 504 h, pre-emergence
How it was run: as §2

POLCO [5] = experiment: Post-emergence herbicidal action against POLCO; format: in vivo, Polygonum convolvulus; settings: Fallopia convolvulus, 504 h, dosage 80 g/ha
How it was run: as §1

AVEFA [6] = experiment: Pre-emergence herbicidal action against AVEFA; format: in vivo, Avena fatua; settings: Avena fatua, 504 h, pre-emergence
How it was run: as §2

VERPE [7] = experiment: Pre-emergence herbicidal action against VERPE; format: in vivo, Veronica persica; settings: Veronica persica, 504 h, dosage 320 g/ha
How it was run: as §2

SETVI [8] = experiment: Pre-emergence herbicidal action against SETVI; format: in vivo, Setaria viridis; settings: Setaria viridis, 504 h
How it was run: as §2

POLCO [9] = experiment: Pre-emergence herbicidal action against POLCO; format: in vivo, Polygonum convolvulus; settings: Fallopia convolvulus, 504 h, dosage 320 g/ha
How it was run: as §2

STEME [10] = experiment: Post-emergence herbicidal action against STEME; format: in vivo, Stellaria media; settings: Stellaria media, 504 h
How it was run: as §1

STEME [11] = experiment: Pre-emergence herbicidal action against STEME; format: in vivo, Stellaria media; settings: Stellaria media, 504 h
How it was run: as §2

PHBPU = experiment: Post-emergence herbicidal action against PHBPU; format: in vivo, Pharbitis purpurea; settings: Ipomoea purpurea, 504 h
How it was run: as §1

AMARE = experiment: Pre-emergence herbicidal action against AMARE; format: in vivo, Amaranthus retroflexus; settings: Amaranthus retroflexus, 504 h, 100% = plants have died, 0% = like control plants
How it was run: as §2

ABUTH [12] = experiment: Pre-emergence herbicidal action against ABUTH; format: in vivo, Abutilon theophrasti; settings: Abutilon theophrasti, 504 h
How it was run: as §2

MATIN [13] = experiment: Post-emergence herbicidal action against MATIN; format: in vivo, Matricaria inodora; settings: Tripleurospermum inodorum, 504 h
How it was run: as §1

AVEFA [14] = experiment: Post-emergence herbicidal action against AVEFA; format: in vivo, Avena fatua; settings: Avena fatua, 504 h, visual assessment about 3 weeks after treatment, 100% = plants have died, 0% = like control plants
How it was run: as §1

HORMU [15] = experiment: Post-emergence herbicidal action against HORMU; format: in vivo, Hordeum murinum; settings: Hordeum murinum, 504 h
How it was run: as §1

VERPE [16] = experiment: Post-emergence herbicidal action against VERPE; format: in vivo, Veronica persica; settings: Veronica persica, 504 h, 80 g/ha
How it was run: as §1

SETVI [17] = experiment: Post-emergence herbicidal action against SETVI; format: in vivo, Setaria viridis; settings: Setaria viridis, 504 h
How it was run: as §1

ABUTH [18] = experiment: Post-emergence herbicidal action against ABUTH; format: in vivo, Abutilon theophrasti; settings: Abutilon theophrasti, 504 h, visual assessment about 3 weeks after treatment vs untreated controls
How it was run: as §1

[19] = 80 g/ha, scored visually after 3 weeks vs untreated controls (100% = plants have died, 0% = like control plants)
[20] = 320 g/ha, scored visually after 3 weeks, 100% = plants have died, 0% = like control plants

CNC(=O)c1c(C(F)(F)F)ccc(C(=O)Nc2nnc(C)o2)c1Cl [Example 6-116]
pest or weed control at 20 g/ha (VIOTR; 20 g/ha): 80% | pest or weed control at 80 g/ha (VIOTR; 80 g/ha): 100% | pest or weed control at 320 g/ha (LOLRI): 100% | pest or weed control at 20 g/ha (ECHCG; dosage 20 g/ha): 100% | pest or weed control at 80 g/ha (ECHCG; dosage 80 g/ha): 100% | pest or weed control at 20 g/ha (MATIN [1]; dosage 20 g/ha): 90% | pest or weed control at 80 g/ha (MATIN [1]; dosage 80 g/ha): 90% | pest or weed control at 320 g/ha (MATIN [1]; dosage 320 g/ha): 100% | pest or weed control at 80 g/ha (ALOMY [2]; [19]): 100% | pest or weed control at 320 g/ha (ALOMY [2]; [20]): 100% | pest or weed control at 20 g/ha (ALOMY [3]; dosage 20 g/ha): 80% | pest or weed control at 80 g/ha (ALOMY [3]; dosage 80 g/ha): 100% | pest or weed control at 80 g/ha (HORMU [4]; 80 g/ha): 90% | pest or weed control at 320 g/ha (HORMU [4]; 320 g/ha): 100% | pest or weed control at 80 g/ha (POLCO [5]): 80% | pest or weed control at 80 g/ha (AVEFA [6]; 80 g/ha): 100% | pest or weed control at 320 g/ha (AVEFA [6]; [20]): 100% | pest or weed control at 320 g/ha (VERPE [7]): 80% | pest or weed control at 80 g/ha (SETVI [8]; dosage 80 g/ha): 100% | pest or weed control at 320 g/ha (SETVI [8]; dosage 320 g/ha): 100% | pest or weed control at 320 g/ha (POLCO [9]): 90% | pest or weed control at 20 g/ha (STEME [10]; 20 g/ha): 100% | pest or weed control at 80 g/ha (STEME [10]; 80 g/ha): 100% | pest or weed control at 5 g/ha (STEME [10]; dosage 5 g/ha): 90% | pest or weed control at 20 g/ha (STEME [11]; dosage 20 g/ha): 90% | pest or weed control at 80 g/ha (STEME [11]; dosage 80 g/ha): 100% | pest or weed control at 320 g/ha (STEME [11]; dosage 320 g/ha): 100% | pest or weed control at 5 g/ha (PHBPU; dosage 5 g/ha): 80% | pest or weed control at 20 g/ha (PHBPU; dosage 20 g/ha): 80% | pest or weed control at 80 g/ha (PHBPU; dosage 80 g/ha): 90% | pest or weed control at 20 g/ha (AMARE; 20 g/ha, scored visually after 3 weeks vs untreated controls): 100% | pest or weed control at 80 g/ha (AMARE; 80 g/ha, scored visually after 3 weeks vs untreated controls): 100% | pest or weed control at 320 g/ha (AMARE; 320 g/ha, scored visually after 3 weeks): 100% | pest or weed control at 80 g/ha (ABUTH [12]; [19]): 100% | pest or weed control at 320 g/ha (ABUTH [12]; Dosage: 320 g/ha, scored visually after 3 weeks, 100% = plants have died, 0% = like control plants): 100% | pest or weed control at 20 g/ha (ABUTH [12]; dosage 20 g/ha, scored visually after 3 weeks vs untreated controls, 100% = plants have died, 0% = like control plants, read-out: Pre-emergence action against ABUTH (herbicidal activity in percent)): 100% | pest or weed control at 5 g/ha (MATIN [13]; dosage 5 g/ha): 80% | pest or weed control at 20 g/ha (MATIN [13]; dosage 20 g/ha): 90% | pest or weed control at 80 g/ha (MATIN [13]; dosage 80 g/ha): 100% | pest or weed control at 5 g/ha (AVEFA [14]; 5 g/ha): 100% | pest or weed control at 20 g/ha (AVEFA [14]; 20 g/ha): 100% | pest or weed control at 80 g/ha (AVEFA [14]; 80 g/ha): 100% | pest or weed control at 20 g/ha (HORMU [15]; dosage 20 g/ha): 90% | pest or weed control at 80 g/ha (HORMU [15]; dosage 80 g/ha): 100% | pest or weed control at 80 g/ha (VERPE [16]): 90% | pest or weed control at 5 g/ha (SETVI [17]; dosage 5 g/ha): 100% | pest or weed control at 20 g/ha (SETVI [17]; dosage 20 g/ha): 100% | pest or weed control at 80 g/ha (SETVI [17]; dosage 80 g/ha): 100% | pest or weed control at 5 g/ha (ABUTH [18]; dosage 5 g/ha): 90% | pest or weed control at 20 g/ha (ABUTH [18]; dosage 20 g/ha): 100% | pest or weed control at 80 g/ha (ABUTH [18]; dosage 80 g/ha): 100%
